Results: patent US20240238333A1 (Penland Foundation, priority 2023, published 2024)

Legend:
[1] = at effective dosages; cited from earlier work
[2] = test system: substance P and glutamate; test: Clinical observation of suppression of substance P and glutamate by nitrous oxide; format: in vivo
From the text: The length of treatment to suppress the severe cytokine reaction will vary and be influenced by the time to medically correct the initiating factor. […] For children, adjustments will have to be made for age and body weight. […] Other inhalants can be included in the above-compositions such as for other purposes.

[N-]=[N+]=O [nitrous oxide]
respiratory depression, over sedation, or irritation of the lungs [1]: does not cause respiratory depression, over sedation, or irritation of the lungs
Duration of substance P suppression, average cases ([2]; average cases): 4 to 8 h
duration of suppression of substance P and glutamate ([2]; conscious sedation levels, about 50% nitrous oxide/about 50% oxygen): 6 to 8 h
